The source of these data is EP4737454A1, “GLP-1 RECEPTOR AGONIST, AND PREPARATION METHOD THEREFOR AND USE THEREOF” (Wayne Biotechnology Co., Ltd., priority 2023, dated 2025).

In this assay the target is Human GLP-1R (Homo sapiens, UniProt P43220). The assay can be described thus: cAMP level determination in human GLP-1R stably transfected HEK293T cells (HTRF cAMP kit). It is filed as cell-based. Particulars: 37°C 30 min. As for the experimental part: Human GLP-1R HEK293T stably transfected cells were digested with trypsin, terminated with DMEM total (without p/s), centrifuged and washed twice with 1X Stimulation buffer, then resuspended in 1X stimulation buffer and counted. The cells were then prepared as a 1 Million/mL cell suspension in stimulation buffer. Compound powder was first prepared as a 10 mM stock solution in DMSO, then diluted to 2 mM with DMSO, and further prepared as 2X compound in 1X stimulation buffer (Cisbio kit buffer with freshly added IBMX at a final concentration of 0.5 mM). The top dose final concentration was 2000 nM, with a final DMSO concentration of 0.2%, diluted in a 1:3 gradient for 11 gradients.
Sequence of Human GLP-1R (P43220 24-463): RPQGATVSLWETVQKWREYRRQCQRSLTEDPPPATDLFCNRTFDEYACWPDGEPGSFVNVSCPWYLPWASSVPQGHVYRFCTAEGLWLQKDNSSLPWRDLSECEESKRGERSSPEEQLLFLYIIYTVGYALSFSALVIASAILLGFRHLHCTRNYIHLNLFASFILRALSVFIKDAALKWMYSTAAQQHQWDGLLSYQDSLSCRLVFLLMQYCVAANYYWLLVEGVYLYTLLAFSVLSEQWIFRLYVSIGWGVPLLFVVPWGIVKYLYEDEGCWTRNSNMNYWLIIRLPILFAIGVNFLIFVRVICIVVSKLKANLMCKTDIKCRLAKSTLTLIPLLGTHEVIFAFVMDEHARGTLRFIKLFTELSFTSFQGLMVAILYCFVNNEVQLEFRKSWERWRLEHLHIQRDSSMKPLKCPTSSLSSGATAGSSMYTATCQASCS
According to the layout, 5 µl of compound was added to each well; Min wells contained 100 nM GLP-1, and Max wells contained 0.2% DMSO in 1X stimulation buffer. 5 µl of cell suspension was added to each well, centrifuged at 300 rpm at room temperature for 1 min, then incubated at 37°C for 30 min. 2X cAMP standards were prepared in 1X Stimulation buffer, with a top final concentration of 2.8 µM, diluted in a 1:3 gradient for 12 doses. According to the layout, 10 µl was added to each well. Finally, d2 and antibody were diluted 20-fold in 1X Detection buffer (Cisbio kit buffer), and 5 µl of each was added to each well according to the layout. After centrifugation at 300 rpm at room temperature for 1 min, the plate was incubated at room temperature for 2 hr.
Stimulation% was calculated based on Min and Max readings (665nm/615nm ratio) using the formula: 100*(ratio Max well - ratio test well)/(ratio Max well - ratio Min well). The cAMP concentration in each test well was derived from the cAMP standard curve, and the data was analyzed using GraphPad Prism 9 to plot four-parameter fit curves and calculate EC50 values using the formula: Y=Bottom + (Top-Bottom)/(1+10^((LogEC50-X)*HillSlope)). Table 1: cAMP Level Determination in Human GLP-1R Stably Transfected HEK293T Cells
Regarding `Cc1cc(-n2nc3c(c2-n2ccn(-c4ccc(C(=O)N(C)C5CC5)cn4)c2=O)[C@H](C)N(C(=O)c2cc4cc(C5CCOC(C)(C)C5)ccc4n2[C@@]2(c4nc(=O)o[nH]4)C[C@@H]2C)CC3)cc(C)c1F` (some centres unmarked) [Compound 29], the EC50 was 102 nM.
Under `Cc1cc(-n2nc3c(c2-n2ccn(-c4ccc(C#N)c(F)c4)c2=O)[C@H](C)N(C(=O)c2cc4cc([C@@H]5CCOC(C)(C)C5)ccc4n2[C@@]2(c4nc(=O)o[nH]4)C[C@@H]2C)CC3)cc(C)c1F` [Compound 82a] stands 459 nM.
Under `Cc1cc(-n2nc3c(c2-n2ccn(-c4ccc5c(c4)CCCS5(=O)=O)c2=O)[C@H](C)N(C(=O)c2cc4cc(C5CCOC(C)(C)C5)ccc4n2[C@@]2(c4nc(=O)o[nH]4)C[C@@H]2C)CC3)cc(C)c1F` (some centres unmarked) [Compound 58] stands 9.93 nM.
As for `Cc1cc(-n2nc3c(c2-n2ccn(-c4ccc(C#N)c(F)c4F)c2=O)[C@H](C)N(C(=O)c2cc4cc(C5CCOC(C)(C)C5)ccc4n2[C@@]2(c4nc(=O)o[nH]4)C[C@@H]2C)CC3)cc(C)c1F` (some centres unmarked) [Compound 93], the figure is 15.1 nM; as for `Cc1cc(-n2nc3c(c2-n2ccn(-c4ccc(C#N)c(F)c4)c2=O)[C@H](C)N(C(=O)c2cc4cc([C@H]5CCOC(C)(C)C5)ccc4n2[C@@]2(c4nc(=O)o[nH]4)C[C@@H]2C)CC3)cc(C)c1F` [Compound 82b], 6.4 nM; as for `Cc1cc(-n2nc3c(c2-n2ccn(-c4ccc5c(c4F)CCS5(=O)=O)c2=O)[C@H](C)N(C(=O)c2cc4cc(C5CCOC(C)(C)C5)ccc4n2[C@@]2(c4nc(=O)o[nH]4)C[C@@H]2C)CC3)cc(C)c1F` (some centres unmarked) [Compound 60], 10.6 nM.
In turn, `Cc1cc(-n2nc3c(c2-n2ccn(-c4ccc(N(C)C(=O)C5CCC5)c(F)c4)c2=O)[C@H](C)N(C(=O)c2cc4cc([C@H]5CCOC(C)(C)C5)ccc4n2[C@@]2(c4nc(=O)o[nH]4)C[C@@H]2C)CC3)cc(C)c1F` [Compound 72] yielded an EC50 of 9.71 nM.
Under `Cc1cc(-n2nc3c(c2-n2ccn(-c4ccc(C#N)c(Cl)c4F)c2=O)[C@H](C)N(C(=O)c2cc4cc(C5CCOC(C)(C)C5)ccc4n2[C@@]2(c4nc(=O)o[nH]4)C[C@@H]2C)CC3)cc(C)c1F` (some centres unmarked) [Compound 97] stands 7.84 nM; under `Cc1cc(-n2nc3c(c2-n2ccn(-c4ccc(N(C)C(=O)C5(C)CC5)c(F)c4)c2=O)[C@H](C)N(C(=O)c2cc4cc([C@H]5CCOC(C)(C)C5)ccc4n2[C@@]2(c4nc(=O)o[nH]4)C[C@@H]2C)CC3)cc(C)c1F` [Compound 71], 4.01 nM; under `Cc1cc(-n2nc3c(c2-n2ccn(-c4cnc(C(=O)N(C)C5CC5)nc4)c2=O)[C@H](C)N(C(=O)c2cc4cc(C5CCOC(C)(C)C5)ccc4n2[C@@]2(c4nc(=O)o[nH]4)C[C@@H]2C)CC3)cc(C)c1F` (some centres unmarked) [Compound 32], 79.7 nM.
As for `Cc1cc(-n2nc3c(c2-n2ccn(-c4ccc(C(=O)N(C)C5CC5)c(C(F)(F)F)c4)c2=O)[C@H](C)N(C(=O)c2cc4cc([C@H]5CCOC(C)(C)C5)ccc4n2[C@@]2(c4nc(=O)o[nH]4)C[C@@H]2C)CC3)cc(C)c1F` [Compound 6], the figure is 5.16 nM.
As for `C[C@H]1c2c(nn(-c3ccc(F)c(C4CC4(F)F)c3)c2-n2ccn(-c3ccc4c(cnn4C)c3F)c2=O)CCN1C(=O)c1cc2cc(C3CCOC(C)(C)C3)ccc2n1[C@@]1(c2nc(=O)o[nH]2)C[C@@H]1C` (some centres unmarked) [Compound 2], the figure is 56.5 nM; as for `Cc1cc(-n2nc3c(c2-n2ccn(-c4cc5c(cc4F)S(=O)(=O)CC5)c2=O)[C@H](C)N(C(=O)c2cc4cc(C5CCOC(C)(C)C5)ccc4n2[C@@]2(c4nc(=O)o[nH]4)C[C@@H]2C)CC3)cc(C)c1F` (some centres unmarked) [Compound 61], 10.8 nM.
In turn, `Cc1cc(-n2nc3c(c2-n2ccn(-c4ccc(C(=O)N(C)C5(C)CC5)c(OC(F)(F)F)c4)c2=O)[C@H](C)N(C(=O)c2cc4cc(C5CCOC(C)(C)C5)ccc4n2[C@@]2(c4nc(=O)o[nH]4)C[C@@H]2C)CC3)cc(C)c1F` (some centres unmarked) [Compound 34] came in with an EC50 of 7.44 nM. This EC50 and that of the compound before are within 1.5-fold of each other.
As for `Cc1cc(-n2nc3c(c2-n2ccn(-c4ccc(C(=O)N(C)C5(C#N)CC5)c(F)c4)c2=O)[C@H](C)N(C(=O)c2cc4cc(C5CCOC(C)(C)C5)ccc4n2[C@@]2(c4nc(=O)o[nH]4)C[C@@H]2C)CC3)cc(C)c1F` (some centres unmarked) [Compound 23], the figure is 13.8 nM.
Under `Cc1cc(-n2nc3c(c2-n2ccn(-c4ccc(C(=O)N(C)C5CC5)c(OC(F)(F)F)c4)c2=O)[C@H](C)N(C(=O)c2cc4cc([C@H]5CCOC(C)(C)C5)ccc4n2[C@@]2(c4nc(=O)o[nH]4)C[C@@H]2C)CC3)cc(C)c1F` [Compound 12] stands 9.58 nM; under `Cc1cc(-n2nc3c(c2-n2ccn(-c4ccccc4C#N)c2=O)[C@H](C)N(C(=O)c2cc4cc(C5CCOC(C)(C)C5)ccc4n2[C@@]2(c4nc(=O)o[nH]4)C[C@@H]2C)CC3)cc(C)c1F` (some centres unmarked) [Compound 89], 201 nM; under `Cc1cc(-n2nc3c(c2-n2ccn(-c4ccc(N(C)C(=O)C5CC5)c(Cl)c4)c2=O)[C@H](C)N(C(=O)c2cc4cc([C@H]5CCOC(C)(C)C5)ccc4n2[C@@]2(c4noc(=O)[nH]4)C[C@@H]2C)CC3)cc(C)c1F` [Compound 70], 3.55 nM.
Regarding `Cc1cc(-n2nc3c(c2-n2ccn(-c4ccc5c(c4)CCN(C4CC4)C5=O)c2=O)[C@H](C)N(C(=O)c2cc4cc(C5CCOC(C)(C)C5)ccc4n2[C@@]2(c4nc(=O)o[nH]4)C[C@@H]2C)CC3)cc(C)c1F` (some centres unmarked) [Compound 55], the EC50 was determined as 8.07 nM.
Compound `Cc1cc(-n2nc3c(c2-n2ccn(-c4ccc(C#N)c(C5CC5)c4)c2=O)[C@H](C)N(C(=O)c2cc4cc(C5CCOC(C)(C)C5)ccc4n2[C@@]2(c4nc(=O)o[nH]4)C[C@@H]2C)CC3)cc(C)c1F` (some centres unmarked) [Compound 79] gave an EC50 of 17.8 nM.
As for `Cc1cc(-n2ccn(-c3c4c(nn3-c3cc(C)c(F)c(C)c3)CCN(C(=O)c3cc5cc(C6CCOC(C)(C)C6)ccc5n3[C@@]3(c5nc(=O)o[nH]5)C[C@@H]3C)[C@H]4C)c2=O)ccc1C#N` (some centres unmarked) [Compound 87], the EC50 was found to be 17.6 nM.
Under `Cc1cc(-n2nc3c(c2-n2ccn(-c4ccc5c(c4)S(=O)(=O)CCC5)c2=O)[C@H](C)N(C(=O)c2cc4cc(C5CCOC(C)(C)C5)ccc4n2[C@@]2(c4nc(=O)o[nH]4)C[C@@H]2C)CC3)cc(C)c1F` (some centres unmarked) [Compound 59] stands 15 nM; under `Cc1cc(-n2nc3c(c2-n2ccn(-c4ccc5c(c4)CCS5(=O)=O)c2=O)[C@H](C)N(C(=O)c2cc4cc([C@H]5CCOC(C)(C)C5)ccc4n2[C@@]2(c4nc(=O)o[nH]4)C[C@@H]2C)CC3)cc(C)c1F` [Compound 56b], 5.59 nM; under `Cc1cc(-n2ccn(-c3c4c(nn3-c3cc(C)c(F)c(C)c3)CCN(C(=O)c3cc5cc([C@H]6CCOC(C)(C)C6)ccc5n3[C@@]3(c5nc(=O)o[nH]5)C[C@@H]3C)[C@H]4C)c2=O)ccc1C(=O)N(C)C1CC1` [Compound 50], 11.6 nM.
As for `C[C@H]1c2c(nn(-c3ccc(F)c(C4CC4)c3)c2-n2ccn(-c3ccc4c(cnn4C)c3F)c2=O)CCN1C(=O)c1cc2cc([C@H]3CCOC(C)(C)C3)ccc2n1[C@@]1(c2nc(=O)o[nH]2)C[C@@H]1C` [Compound 1b], the figure is 17.5 nM; as for `Cc1cc(-n2nc3c(c2-n2ccn(-c4ccc(C#N)cc4)c2=O)[C@H](C)N(C(=O)c2cc4cc(C5CCOC(C)(C)C5)ccc4n2[C@@]2(c4nc(=O)o[nH]4)C[C@@H]2C)CC3)cc(C)c1F` (some centres unmarked) [Compound 90], 15.1 nM.
Under `Cc1cc(-n2nc3c(c2-n2ccn(-c4ccc(C(=O)N(C)C5CC5)cc4)c2=O)[C@H](C)N(C(=O)c2cc4cc([C@H]5CCOC(C)(C)C5)ccc4n2[C@@]2(c4nc(=O)o[nH]4)C[C@@H]2C)CC3)cc(C)c1F` [Compound 10] stands 8.55 nM; under `Cc1cc(-n2nc3c(c2-n2ccn(-c4ccc(C(=O)N(C)C5CC5)c(OC(F)(F)F)c4F)c2=O)[C@H](C)N(C(=O)c2cc4cc([C@H]5CCOC(C)(C)C5)ccc4n2[C@@]2(c4nc(=O)o[nH]4)C[C@@H]2C)CC3)cc(C)c1F` [Compound 54], 4.48 nM.
Compound `Cc1cc(-n2nc3c(c2-n2ccn(-c4cc(F)c(C(=O)N(C)C5CC5)c(F)c4)c2=O)[C@H](C)N(C(=O)c2cc4cc(C5CCOC(C)(C)C5)ccc4n2[C@@]2(c4nc(=O)o[nH]4)C[C@@H]2C)CC3)cc(C)c1F` (some centres unmarked) [Compound 52] came in with an EC50 of 11 nM.
Under `Cc1cc(-n2nc3c(c2-n2ccn(-c4ccc(N(C)C5CC5)c(Cl)c4)c2=O)[C@H](C)N(C(=O)c2cc4cc([C@H]5CCOC(C)(C)C5)ccc4n2[C@@]2(c4noc(=O)[nH]4)C[C@@H]2C)CC3)cc(C)c1F` [Compound 67b] stands 11.2 nM.
As for `Cc1cc(-n2nc3c(c2-n2ccn(-c4cc(F)c(C(=O)N(C)C5CC5)c(Cl)c4F)c2=O)[C@H](C)N(C(=O)c2cc4cc(C5CCOC(C)(C)C5)ccc4n2[C@@]2(c4nc(=O)o[nH]4)C[C@@H]2C)CC3)cc(C)c1F` (some centres unmarked) [Compound 19], the figure is 16.2 nM.
As for `Cc1cc(-n2nc3c(c2-n2ccn(-c4ccc(C#N)cc4F)c2=O)[C@H](C)N(C(=O)c2cc4cc([C@@H]5CCOC(C)(C)C5)ccc4n2[C@@]2(c4nc(=O)o[nH]4)C[C@@H]2C)CC3)cc(C)c1F` [Compound 81a], the figure is 387 nM.

As a reminder, the EC50 is the concentration needed to bring the measured effect to its halfway point. A low value points to greater potency.
